12 molecules from patent EP1296995B1, “3'-PRODRUGS OF 2'-DEOXY-BETA-L-NUCLEOSIDES” (priority 2000, dated 2001) can be followed below.

Data set [1] in a line: physchem. The method, then: To 1 mL of this solution, 1 mL of octanol-1 (B) saturated with 0.02 M phosphate buffer solution (A) was added. The resultant mixture was shaken and centrifuged; three samples from each phase was collected and analyzed by HPLC, as shown in Table 10. […]
The solution was then saturated with octanol-1 (B). To 1 mL of this solution, 1 mL of octanol-1 (B) saturated with 0.02 M phosphate buffer solution (A) was added. The resultant mixture was shaken and centrifuged; three samples from each phase was collected and analyzed by HPLC, as shown in Table 11. […]

The nature of data set [2]: in vivo. To be noted: monkey, po.
A short description of data set [3]: in vitro. The note with it: human, hepg2 cells. An excerpt: (§1) These studies included analysis of lactic acid production, mtDNA content and determination of changes in morphology (e.g., loss of cristae, matrix dissolution and swelling, and lipid droplet formation) of mitochondrial ultrastructure.
The test system of the next data set is HepG2 cells. Put plainly: in vitro.
From the text: as §1

Data set [4] addresses virion-associated DNA polymerase of WHV. In words: Endogenous polymerase assay, virion-associated DNA polymerase. The format is biochemical.
The test system of the next data set is Rats Primary Hepatocytes. Put plainly: Intracellular metabolism of L-dC in rat primary hepatocytes. To be noted: 10 µM L-dC, 24 hours.
The subject of data set [5] is Monkey Primary Hepatocytes. Put plainly: Intracellular metabolism of L-dC in monkey primary hepatocytes. The note with it: 10 µM L-dC, 24 hours, n=1.
A short description of data set [6]: Stability study in buffers at various pH. The format is physicochemical.
Data set [7] is described as follows: physchem. The note with it: water.
The nature of data set [8]: in vivo. Further details: species or system cynomologus monkeys (macaca fascicularis). The note with it: cynomolgus monkey. The text has this:
The drug was quantitated in plasma and urine with a liquid chromatography-mass spectrometry (LC-MS) technique.

Data set [9] in a line: in vivo. To be noted: rat. The method, then: Clinical observations were documented once daily. Body weights were documented before dosing on Days 1, 8, 15, 22, and 28 and before necropsy on Day 29. Food consumption was documented weekly. Blood samples for hematology and serum chemistries also were collected before necropsy on Day 29.
Toxicokinetics. An additional 54 animals (27 males and 27 females) had samples collected for pharmacokinetic analyses on Days 1 and 28. […] Analysis of the 500 mg/kg group is in progress.

For data set [10] the following is noted: monkey, in vivo.
Data set [11] in a line: Oral bioavailability of L-dC via dival-L-dC (HPLC). The note with it: cynomolgus monkey. The text has this: The drug was quantitated in plasma and in urine using HPLC analysis.
The conditions of data set [12]: monkey, in vivo. The source holds these as a separate data set.
The conditions of data set [13]: rhesus monkey, in vivo, po.
A further data set has as its system HBV. In words: Antiviral activity against HBV in 2.2.15 cells (reduction of HBV DNA). The note with it: 2.2.15 cells.
Data set [14] in a line: Log P' study, MilliQ water / octanol-1. Format: physicochemical. The note with it: for P' (B/A'): MilliQ water pH 6.5 (A') / octanol-1 (B), Study 1 and Study 2.
Data set [15] can be described thus: in vivo. To be noted: rat, po.
Data set [16] in a line: in vivo. The note with it: monkey. The text has this: […]. […] Clinical observations were documented daily. Blood samples for hematology and serum chemistries were collected and body weight measured before treatment on Days 1, 4, 7, 10, and 14, and before necropsy on Day 17. After completion of Day 17 evaluations, all animals were euthanized and a complete necropsy performed, including macroscopic examination and comprehensive tissue collection.

A short description of data set [17]: in vivo. To be noted: monkey, po. This is another data set of the same source.
Data set [18] in a line: in vitro. The note with it: human, plasma.
Data set [19] can be described thus: in vitro. The note with it: human, plasma. The source holds these as a separate data set.
Where [20] appears, read: 0.02 m phosphate buffer, pH 7.2.

Structures can show the parent of a compound that is named as a salt. Where two headings read alike, the source gives them in different places. Bounds are passed on as bounds.

As to `CC(=O)OC[C@@H]1O[C@H](n2ccc(N)nc2=O)C[C@H]1OC(C)=O` [3'5'-diacetyl-L-dC, 3',5'-Di-O-acetyl-2'-deoxy-β-L-cytidine], the logD (as a rule, the decadic logarithm of the distribution of all forms, ionised or not, between an organic phase and buffer at a given pH) in the data set “physchem [1]” (setting [20]) was -0.74. Moreover, the bioavailability (commonly dose-corrected exposure relative to a reference, in per cent) in the data set “in vivo [2]” was 23 ± 6.5%.
With `O=c1[nH]c(=O)n([C@@H]2O[C@H](CO)[C@@H](O)[C@@H]2F)cc1I` [FIAU, fialuridine], in “in vitro [3]”, the activity stood at 203% and the activity at 336 h is 86%. In addition, the “Lipid Droplet Formation” value in the data set with HepG2 cells (Conc. (µM): L-dC 10, FIAU 10, ZDV 50, ddC 1) is recorded as “positive”. Further, in the data set with HepG2 cells (Conc. (µM): L-dC 10, FIAU 10, ZDV 50, ddC 1, electron microscopy), the “Mitochondrial Morphology” value is “abnormal”. Also, in the data set with HepG2 cells (HepG2 cells), the “increase of lactic acid production compared to vehicle control” value is 100%.
Consider `O=c1ccn([C@@H]2C[C@@H](O)[C@H](COP(=O)(O)OP(=O)(O)OP(=O)(O)O)O2)c(=O)[nH]1` [L-dU-TP, β-L-2'-deoxyuridine 5'-triphosphate], for which the 50% inhibitory concentration (IC50) (as a rule, the concentration that gives 50% inhibition) in data set [4] (target as printed, read-out: IC50 in vitro against hepatitis B virus DNA polymerase) came out at 5.26 µM. Also, the intracellular metabolite level in the data set with Rats Primary Hepatocytes was found to be 46.9 ± 5.2 µM; in data set [5], 21.9 µM.
`CC(C)[C@H](N)C(=O)O[C@@H]1C[C@@H](n2ccc(N)nc2=O)O[C@H]1CO` [3'-val-L-dC, 3'-valinyl ester of β-L-deoxyribocytosine] gave a pH-dependent lipophilicity (logD) in the data set “physchem [1]” (0.02 m phosphate buffer, pH 7.2, log P (octanol/water)) of -1.53. Besides, the half-life (commonly the time needed for the level to fall by half in the phase considered) in data set [6] (0.2m tris-hcl, pH 7.4) was 7 h; in data set [6] (pH 1.2 (135 mM KCl-HCl buffer solution), read-out: half-life) it was above 48 h. The bioavailability in the data set “in vivo [2]” was 85.1 ± 24.5%. The solubility – broadly, the concentration that dissolves in the medium under given conditions – in the data set “physchem [7]” was above 408 mg/mL.
Consider `CC(C)[C@H](N)C(=O)OC[C@@H]1O[C@H](n2ccc(N)nc2=O)C[C@H]1O` [5'-val-L-dC, 5'-L-valine ester of 2'-deoxy-β-L-cytidine hydrochloride], for which the “share of drug excreted in the urine (total recovered dose)” value (from here on “share … (total recovered dose)”) in the data set “in vivo [8]” (iv) is reported as around 3.7%. Also, the concentration at 2 h in the data set “in vivo [8]” (iv, 10 mg/kg) turned out to be 80 nM. Moreover, the “share … (total recovered dose)” value in the data set “in vivo [8]” (po) was around 0.2%. Besides, in “in vivo [9]”, the “AUClast higher for females than males” value was 25-50% and the “AUClast higher on Day 28 vs. Day 1” value was 30-62%. The Tmax (as a rule, the time from dosing to the highest level) in “in vivo [9]” (po) lay within 1 to 2 h. Further, the “Tlast (median)” value in data set [10] is 10 h. In addition, in [10] (po), the “median Tmax” value was found to be 1 h. Also, in the data set “in vivo [2]”, the bioavailability was determined as 39 ± 11.4%.
As to `Nc1ccn([C@@H]2C[C@@H](O)[C@H](COP(=O)(O)OP(=O)(O)OP(=O)(O)O)O2)c(=O)n1` [L-dC-TP], the 50% inhibitory concentration (IC50) in data set [4] (endogenous polymerase assay, read-out: IC50 viral DNA pol (WHV DNA polymerase)) was 1.82 ± 0.23 µM. Moreover, the intracellular metabolite level with Rats Primary Hepatocytes was found to be 14.2 ± 3.1 µM; in data set [5], 39.3 µM.
For `O=c1ccn([C@@H]2C[C@@H](O)[C@H](CO)O2)c(=O)[nH]1` [L-dU, β-L-2'-deoxyuridine], the “share … (total recovered dose)” value in the data set “in vivo [8]” (iv) was “approximately 2.5%”; in the data set “in vivo [8]” (po), “approximately 2.5%”; in data set [12] (po), 29%; in data set [13] it was 23%. The concentration in “in vivo [8]” (iv, 10 mg/kg) was 220 to 880 nM; in the data set “in vivo [8]” (po, 10 mg/kg, 8 h) it was 390 nM. Also, the “share of drug excreted in the urine (recovered dose)” value in data set [11] (in vivo) is reported as “approximately 10%”. In addition, the “share of the dose recovered in the urine” value in data set [12] (iv, 10 mg/kg) is on record as 4.0%.
As to `Nc1ccn([C@@H]2CS[C@H](CO)O2)c(=O)n1` [3TC, (-)-enantiomer of cis-2-hydroxymethyl-5-(cytosin-1-yl)-1,3-oxathiolane, reference compound], in the data set with HBV, the “S.I. (CC50/EC90)” value is listed as > 5,000.
Regarding `Nc1ccn([C@H]2C[C@H](O)[C@@H](CO)O2)c(=O)n1` [D-dC, D-Deoxycytidine], in the data set “physchem [1]” (setting [20]), the “P(B/A)” value is given as 0.039 and the “log P (octanol/water)” value is on record as -1.41.
For `Nc1ccn([C@H]2CC[C@@H](CO)O2)c(=O)n1` [ddC, zalcitabine], in the data set “in vitro [3]”, the activity worked out at 95 ± 4.4%, the activity at 336 h came to 13% and the inhibition (commonly the share of the control response that was lost under treatment) at 336 h was determined as 87%. Moreover, in the data set on HepG2 cells, the “Lipid Droplet Formation” value was “negative” and the “Mitochondrial Morphology” value is “abnormal”.
`CC(=O)Nc1ccn([C@@H]2C[C@@H](O)[C@H](CO)O2)c(=O)n1` [N^4-acetyl-L-dC, N^4-Acetyl-2'-deoxy-β-L-cytidine]: in [6] (pH 1.2, read-out: half-life), the half-life amounted to 0.833 h.
With `CC(C)[C@H](N)C(=O)OC[C@@H]1O[C@H](n2ccc(N)nc2=O)C[C@H]1OC(=O)[C@@H](N)C(C)C` [3'5'-dival-L-dC, 3,5'-L-Valine ester of 2'-deoxy-β-L-cytidine hydrochloride], the logD in the data set “physchem [1]” (setting [20]) was -0.86. Moreover, in the data set “physchem [1]” (octanol-1, pH 7.2), the degraded stood at 14%. Besides, the degraded in the data set “physchem [1]” (phosphate buffer, pH 7.2) is 50%. For the same molecule, in data set [14], the “P' (B/A')” value was 1.80 x10^-3. Further, in data set [14] (listed as L-dC-3',5'-divalinyl ester hydrochloride, hydrochloride), the “P' (B/A')” value is 1.77 x 10^-3. The “conversion to the monoesters or L-dC during log P' experiment” value in data set [14] (aqueous or organic phases, MilliQ water) is reported as “No conversion”. In addition, the “share … (total recovered dose)” value in the data set “in vivo [8]” (iv) was “approximately 0.15%”. Also, the “share … (total recovered dose)” value in “in vivo [8]” (po) is given as “No dival-L-dC was detected”. Moreover, in data set [11] (urine, 10 mg/kg), the dose excreted at 8 h is around 26% and the dose excreted at 72 h stood at 31%. Moreover, the NOAEL (in general, the highest tested level that showed no adverse finding) at 360 h in “in vivo [15]” was 2000 mg/kg. In “in vivo [16]”, the “RBC, HGB and HCT lower at Day 17 compared to Day 1” value is given as 15-27%; the “decrease of BUN at Day 17 compared to Day 1” value is around 43%. For the same molecule, the no-observed-adverse-effect level (NOAEL) in the data set “in vivo [16]” (po) was 2000 mg/kg. The molecule also returned a no-observed-adverse-effect level (NOAEL) at […] in “in vivo [9]” (po) below 500 mg/kg. In “in vivo [2]”, this molecule showed a Fa of around 73% and a bioavailability of 72.7 ± 22%. The NOAEL at 600 h in the data set “in vivo [17]” was below 500 mg/kg. In the data set “in vitro [18]”, this molecule came in with a half-life of around 0.65 h. In addition, the free fraction (fraction unbound) (commonly the share of the substance not bound to proteins or other matrix) in the data set “in vitro [19]” is 0.867.
